# Read-outs that look alike come from different tables or passages of the source.
# How the values were obtained:
# [1] = tested on: gel-filtered human platelets; assay: Inhibition of the aggregation of gel-filtered human platelets after ADP or thrombin stimulation; assay type: cell-based; details: platelet aggregation
# Method: (§1) The compounds are tested in particular for their inhibitory effect on blood platelet aggregation and the adhesion of fibrinogen to blood platelets. Gel-filtered blood platelets from human donor blood are used, which are activated with ADP or thrombin.
# As a functional test, the inhibition of the aggregation of gel-filtered human platelets is measured after ADP or thrombin stimulation by the compounds according to the invention. The IC50 value of the inhibition is indicated (reference: G. A. Marguerie et al., J. Biol. Chem. 254 (1979), 5357-5363).
# [2] = target: T1, fibrinogen receptor (glycoprotein IIb/IIIa) (Homo sapiens, UniProt P05106+P08514); assay: Inhibition of binding of 125I-fibrinogen to its receptor on intact, gel-filtered human platelets; details: inhibition of 125I-fibrinogen binding after stimulation with ADP (10 μM), read-out: Ki (μM), ADP-stimulated
# T1 construct: its receptor (glycoprotein IIb/IIIa) on intact, gel-filtered human platelets; endogenous in cells; host or cells: gel-filtered platelets from human donor blood, stimulated with ADP (10 uM)
# Method: as §1
# The inhibition of the binding of fibrinogen to its receptor (glycoprotein IIb/IIIa) on intact, gel-filtered human platelets by the compounds according to the invention is tested. The Ki value of the inhibition of binding of 125I-fibrinogen after stimulation with ADP (10 μM) is indicated. (Reference: J. S. Bennett and G. Vilaire, J. Clin. Invest. 64 (1979) 1393-1401; E. Kornecki et al., J. Biol. Chem. 256 (1981), 5695-5701; G. A. Marguerie et al., J. Biol. Chem. 254 (1979) 5357-5363; G. A. Marguerie et al., J. Biol. Chem. 255 (1980) 154-161.)
# [3] = ADP stimulation, read-out: ADP-stimulated IC50
# [4] = thrombin stimulation, read-out: thrombin-stimulated IC50
# T1 sequence (P08514 32-887 limits assumed): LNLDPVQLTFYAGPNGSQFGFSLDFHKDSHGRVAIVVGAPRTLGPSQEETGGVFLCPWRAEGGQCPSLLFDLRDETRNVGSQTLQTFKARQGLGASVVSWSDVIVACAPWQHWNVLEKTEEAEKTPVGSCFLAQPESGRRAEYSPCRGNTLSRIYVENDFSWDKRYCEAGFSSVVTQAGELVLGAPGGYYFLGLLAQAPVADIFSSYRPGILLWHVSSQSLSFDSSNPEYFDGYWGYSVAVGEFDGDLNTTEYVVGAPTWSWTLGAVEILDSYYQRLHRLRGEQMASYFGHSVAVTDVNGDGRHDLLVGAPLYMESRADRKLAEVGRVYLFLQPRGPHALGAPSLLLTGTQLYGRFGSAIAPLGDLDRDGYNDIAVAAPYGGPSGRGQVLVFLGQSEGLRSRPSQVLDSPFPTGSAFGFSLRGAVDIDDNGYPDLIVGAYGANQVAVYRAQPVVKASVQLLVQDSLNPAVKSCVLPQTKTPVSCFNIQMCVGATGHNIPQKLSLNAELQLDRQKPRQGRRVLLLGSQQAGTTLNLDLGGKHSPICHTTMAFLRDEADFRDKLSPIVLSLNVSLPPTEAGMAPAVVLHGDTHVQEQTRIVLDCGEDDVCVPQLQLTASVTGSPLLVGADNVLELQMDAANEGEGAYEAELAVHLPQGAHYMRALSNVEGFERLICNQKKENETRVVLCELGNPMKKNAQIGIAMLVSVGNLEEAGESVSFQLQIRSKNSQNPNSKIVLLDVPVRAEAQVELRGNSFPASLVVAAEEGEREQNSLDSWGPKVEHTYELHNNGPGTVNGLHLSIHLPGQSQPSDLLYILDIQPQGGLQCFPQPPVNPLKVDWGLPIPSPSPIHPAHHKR
# T1 sequence (P08514 891-1039 limits assumed): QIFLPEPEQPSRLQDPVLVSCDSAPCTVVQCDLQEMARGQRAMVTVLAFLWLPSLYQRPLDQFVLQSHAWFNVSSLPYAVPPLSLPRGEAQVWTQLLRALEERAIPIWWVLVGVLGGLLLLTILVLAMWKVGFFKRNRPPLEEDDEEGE
# T1 sequence (P05106 27-788): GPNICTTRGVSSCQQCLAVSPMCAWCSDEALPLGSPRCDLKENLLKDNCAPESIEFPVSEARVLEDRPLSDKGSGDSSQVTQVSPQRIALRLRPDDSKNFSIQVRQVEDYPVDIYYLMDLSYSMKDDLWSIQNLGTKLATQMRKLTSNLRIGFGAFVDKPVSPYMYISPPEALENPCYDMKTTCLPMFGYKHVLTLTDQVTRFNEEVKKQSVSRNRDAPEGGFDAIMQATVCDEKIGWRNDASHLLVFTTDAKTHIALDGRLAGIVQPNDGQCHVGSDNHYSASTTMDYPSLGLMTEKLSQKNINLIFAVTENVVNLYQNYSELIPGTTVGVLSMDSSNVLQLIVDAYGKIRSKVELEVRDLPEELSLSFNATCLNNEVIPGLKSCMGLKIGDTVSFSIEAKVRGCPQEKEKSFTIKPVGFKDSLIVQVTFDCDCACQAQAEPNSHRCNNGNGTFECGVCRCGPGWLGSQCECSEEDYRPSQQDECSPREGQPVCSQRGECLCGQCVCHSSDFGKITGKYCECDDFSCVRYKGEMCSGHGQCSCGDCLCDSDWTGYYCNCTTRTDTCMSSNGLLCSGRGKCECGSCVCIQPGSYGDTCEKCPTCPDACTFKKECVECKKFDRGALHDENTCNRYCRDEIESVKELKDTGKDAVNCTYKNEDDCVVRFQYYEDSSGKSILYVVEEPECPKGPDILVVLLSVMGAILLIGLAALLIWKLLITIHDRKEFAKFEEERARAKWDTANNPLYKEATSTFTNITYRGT
Compound,"IC50 [1, 3]","IC50 [1, 4]",Ki [2]
N=C(N)c1ccc(NC(=O)NCC(=O)N[C@@H](CC(=O)O)C(=O)N[C@H](C(=O)O)c2ccccc2)cc1 [Example 1],0.15 µM,0.1 µM,0.03 µM
(3-(4-(Aminoiminomethyl)phenyl)ureido)acetyl-L-aspartyl-L-phenylglycine methyl ester trifluoroaetate [Example 6],0.75 µM,0.3 µM,–

# More lines, main results first:
"IC50 [1, 3]","IC50 [1, 4]",Compound,Ki [2]
8.5 µM,3 µM,3-(3-(3-Aminopropyl)ureido)benzoyl-L-aspartyl-L-phenylglycine [Example 10],–
3 µM,1.5 µM,3-((3-(4-(Aminoiminomethyl)phenyl)ureido)acetylamino)-3-phenyl-propionic acid [Example 7],–
2 µM,2 µM,(3-(4-(Aminoiminomethyl)phenyl)ureido)acetyl-L-aspartylbenzylamide [Example 8],–

# Reference: US5703050A (Hoechst Aktiengesellschaft, priority 1993, dated 1997)
